Where a SMILES comes first, the peptide text is derived from it. Where no end group is shown, it is not given here. [ ]: non-standard residue; d: D form. 2Nal = N[C@@H](Cc1ccc2ccccc2c1)C(=O)O; F72 = not defined here
Columns and labels:
[1] = target: T1, sushi domain 1 (SD1) of GABABR1a (Homo sapiens, UniProt Q9UBS5); experiment: Isothermal titration calorimetry (ITC) direct binding assay; conditions: for ITC Kd: peptide titrated into Sushi-1 protein in PBS
T1 construct: The synthetic gene encoding for residues 26-96 of the Sushi1 protein was cloned into a pFloat-SUMO vector; His-SUMO (with 3C protease site) (N, cleaved yes); made in house; host or cells: E. coli BL21(DE3)
Source text: In contrast to the FP assay, the isothermal titration calorimetry (ITC) assay is a direct binding assay.
For biophysical and structural biology purposes the Sushi1 protein was expressed in a bacterial expression system. The synthetic gene encoding for residues 26-96 of the Sushi1 protein was cloned into a pFloat-SUMO vector, generating a His-tagged SUMO-Sushi1 fusion protein. The construct also contained a 3C protease cleavage site to remove the His-SUMO-tag. The pFloat-SUMO-Sushi1 plasmid was transformed in BL21(DE3) cells and plated on kanamycin ([…]) containing LB agar plates. A small LB culture, supplemented with […] kanamycin, was inoculated with a single colony of BL21(DE3)(pFloat-SUMO-Sushi1) and grown overnight at 37° C. 1 liter LB cultures were subsequently inoculated with 20 ml of this preculture and grown at 37° C. until OD600 reached 0.8. At this point protein expression was induced using 0.5 mM isopropyl β-D-1-thiogalactopyranoside (IPTG). Cells were incubated further overnight at 20° C. and subsequently harvested by centrifugation (Beckman rotor 8.1000, 5000 rpm, 15 min, 4C). The pellet was resuspended in 20 mM Tris pH 7.5, 500 mM NaCl, 10 mM imidazole, 5 mM β-mercaptoethanol, 0.1 mg/mL 4-(2-aminoethyl) benzenesulfonyl fluoride hydrochloride (AEBSF), 1 μg/mL leupeptine, 50 μg/mL DNasel and 20 mM MgCl2. The cells were lysed using a French press (Constant Systems) at 20 kpsi and the cell debris was removed by centrifugation. The cell lysate was loaded on a Ni-sepharose FF HiLoad column (GE Healthcare), equilibrated in 20 mM Tris pH 7.5, 500 mM NaCl, 10 mM imidazole, 5 mM […]. The bound proteins were eluted using a linear gradient to 500 mM imidazole. Fractions containing the His-SUMO-Sushi1 protein were pooled and dialysed overnight to 20 mM Tris pH 7.5, 150 mM NaCl, while cleaving with 3C protease. The cleaved sample was loaded again on a Ni-sepharose FF HiLoad column, equilibrated in the same buffer. The FT, containing the Sushi1 protein, was concentrated and applied to a BioRad S100 16/60 size exclusion column, equilibrated in 50 mM KPi buffer pH 6.0, 50 mM NaCl.
(§1) The Sushi-1 protein was dialysed overnight to PBS buffer and diluted to 30 μM in the same buffer. The peptides were resuspended in PBS at a stock concentration of 3 mM and diluted further in the same buffer to 300 μM. ITC experiments were performed on a Microcal ITC200 device. Titrations comprised 26×1.5 μL injections of peptide into protein, with 90 s intervals. An initial injection of ligand (0.5 μL) was made and discarded during data analysis. The data were fitted to a single binding site model using the Microcal LLC ITC200. Original software provided by the manufacturer.

[2] = system: acute mouse hippocampal slices, CA3-CA1 Schaffer collateral (SC) synapses; experiment: Ex vivo fEPSP short-term facilitation in acute hippocampal slices (multi-electrode array); format: cell-based
Procedure: The effect of a selection of GABABR1a-SD1 binders on synaptic transmission was tested in an ex vivo experiment using acute mouse hippocampal slices comprising an intact circuit of CA3-CA1 Schaffer collateral (SC) synapses. In short, a burst of 5 stimuli at 20 Hz was applied to Schaffer collaterals to induce short-term facilitation, which inversely correlates with the probability of neurotransmitter release.
Recordings were done in C57BL/6J mice (2 months old). For tissue preparation, mice were anesthetized with isoflurane and rapidly decapitated to prepare acute 300 μm-thick parasagittal brain slices on a Leica VT1200 vibratome. Slicing was performed in cold sucrose based cutting solution (ACSF) that consisted of (in mM): 87 NaCl, 2.5 KCl, 1.25 NaH2PO4, 10 glucose, 25 NaHCO3, 0.5 CaCl2, 7 MgCl2, 75 sucrose, 1 kynurenic acid, 5 ascorbic acid, 3 pyruvic acid (pH 7.4 with 5% CO2/95% O2). Slices were allowed to recover at 34° C. for 35 min, and subsequently maintained at room temperature for at least 30 min before use. Before recordings, slices were preincubated in artificial cerebrospinal fluid (ACSF, 119 mM NaCl, 2.5 mM KCl, 1 mM NaH2PO4, 11 mM glucose, 26 mM NaHCO3, 4 mM MgCl2 and 4 mM CaCl2, pH 7.4) containing peptide of interest or scrambled/control peptide (1 or 10 uM). Preincubation was performed in the multielectrode array recording chamber (60MEA200/30iR-Ti-gr, Multichannel Systems) for 60 min at 32° C., using custom-made local carbogenation rings (5% CO2/95% 02). Field excitatory post-synaptic potentials (fEPSPs) were recorded from Schaffer collateral-CA1 synapses by stimulating and recording from the appropriate (visually identified) electrodes (MEA-2100, Multichannel Systems). Input-output curves were recorded for each slice by applying single-stimuli ranging from 500 to 2750 mV with 250 mV increments. […] Train stimulations of 10, 20 and 50 Hz (5 stimuli per train) were recorded with 10 minutes intervals. Recordings were processed and analysed using Multi Channel Experimenter software (Multi Channel Systems).

[3] = target: T2, GABABR1a-SD1 (SD1-FITC-9mer complex) (Homo sapiens, UniProt Q9UBS5); experiment: Fluorescence polarization (FP) competition assay with FITC-9mer; format: binding; conditions: peptide at 50 μM; inhibition of FITC-9mer binding to SD1
T2 construct: The synthetic gene encoding for residues 26-96 of the Sushi1 protein was cloned into a pFloat-SUMO vector; His-SUMO (with 3C protease site) (N, cleaved yes); made in house; host or cells: E. coli BL21(DE3)
Procedure: Intrigued by the surprising results of the 5-mer, it was decided to set up a medium- to high-throughput screen to optimize the 5-mer sequence. Several assays were tested to find a reproducible, robust and cost-effective assay that is also suitable for high-throughput screening. A fluorescence polarization (FP) assay was selected. FP measurements are well-known for receptor binding assays. The assay is based on the rotational movement of fluorescently labelled molecules in solution. […] The FP assay was optimized using the FITC labelled sAPP 9-mer (FIG. 1).
To screen for GABABR1a binders using unlabelled test compounds, the assay was turned into a competition assay using FITC-9mer. […] To validate this inhibitor assay, the IC50 values were determined of the 17-mer, 9-mer, 5-mer as well as those from 3 negative controls: 10-mer, scrambled 17-mer and a scrambled 9-mer (FIG. 2).
To determine if the peptides of this application were able to disrupt the SD1-9-mer complex, each peptide (in single point or dose-response curve) tested was incubate with SD1 protein for 1 h at RT. After this initially incubation, FITC-9mer was added to the previous mix and incubated during 2 h at RT. The signal intensity was measure in an appropriate plate reader using the following settings: Number of flashes per well: 200; Excitation: F482-16; Dichroic filter: FLP 504; Emission A F530-40; Gain A: 738, Gain B: 736. The assay was conducted in a 384-well plate.

[4] = target: T3, HEK293 cells expressing the ectodomain of GABABR1a comprising SD1 (Homo sapiens, UniProt Q9UBS5); experiment: Flow-cytometry cell-based binding assay, competition with biotinylated 9-mer; conditions: peptide at 100 μM, inhibition of biotin-9mer (10 μM) binding
T3 construct: HEK293 were transfected with plasmids encoding the ectodomain of GABABR1a (as in Rice et al., 2019); expressed in transfected cells; host or cells: HEK293
Procedure: HEK cells expressing GABABR1a-SD1 were incubated with peptides of the application and the binding of 9-mer in the presence of the peptides was measured. The 9-mer peptide is biotinylated and detected with a commercial antibody.
Next, the top ranking compounds were tested in a cell-based binding assay. HEK293 cells were transformed to express the ectodomain of GABABR1a comprising SD1. In this cell-based assay, SD1 is expressed on the GABABR1a ectodomain and can adopt a more physiological conformation, compared to the purified SD1 protein used in the primary assay (FP assay).
HEK293 were transfected with plasmids encoding the ectodomain of GABABR1a (as in Rice et al., 2019), carrying a His-tag at the N-terminal. After 24 h of expression, cells were harvested and adjusted to a concentration of 1×10^6 cells/mL in ice-cold 2% FBS/PBS. Incubation with each peptide (in dose-response curve) was carried out at 4° C. for 1 h, followed by incubation with the biotion-9mer (10 μM) peptide during 30 min. Detection antibodies recognizing either His protein or biotin were added for a period of 30 min. The assay plate containing the cells was loaded into the Attune NxT Cytometer, parameters were adjusted accordingly with the cell type and signal intensity. In each experiment, positive and negative control were added to the plate.

[5] = target: T4, Sushi domain 1 of the human GABA B1a receptor (human, UniProt Q9UBS5 26-96); experiment: ITC
T4 construct: Purified recombinant protein from E. coli; also called SD1; GABABR1a-SD1
Procedure: In the mutagenesis experiment of Example 1 we also included an 8-mer lacking position 9.
as §1, with “ITC₂₀₀.” for “ITC200.”

T4 sequence (Q9UBS5 26-96 limits assumed): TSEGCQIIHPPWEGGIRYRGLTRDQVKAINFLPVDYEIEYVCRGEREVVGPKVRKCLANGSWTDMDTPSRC
T3 sequence (Q9UBS5 20-591 limits assumed): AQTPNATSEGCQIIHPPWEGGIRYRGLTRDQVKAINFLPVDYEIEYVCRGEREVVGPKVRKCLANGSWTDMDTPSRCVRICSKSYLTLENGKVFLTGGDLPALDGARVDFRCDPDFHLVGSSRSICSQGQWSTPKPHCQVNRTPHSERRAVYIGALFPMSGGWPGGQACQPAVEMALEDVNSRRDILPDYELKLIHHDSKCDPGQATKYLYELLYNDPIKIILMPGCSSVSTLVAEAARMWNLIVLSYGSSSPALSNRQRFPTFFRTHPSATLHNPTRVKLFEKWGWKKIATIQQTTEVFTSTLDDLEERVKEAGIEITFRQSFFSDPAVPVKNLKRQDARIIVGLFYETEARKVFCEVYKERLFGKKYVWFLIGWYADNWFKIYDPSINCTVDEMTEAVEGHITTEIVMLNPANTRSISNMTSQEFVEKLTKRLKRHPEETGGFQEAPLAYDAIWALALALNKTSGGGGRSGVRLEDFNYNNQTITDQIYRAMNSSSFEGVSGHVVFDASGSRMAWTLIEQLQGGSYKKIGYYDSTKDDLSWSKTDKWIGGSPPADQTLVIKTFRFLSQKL
T2 sequence (Q9UBS5 26-96, one chain of several): as the sequence (Q9UBS5 26-96 limits assumed) above

For “VIB-0068911: non-natural 5-mer d-I-F72-W-S; d = D-aspartate, F72 = (isoethylmethyl)benzene ([dD]I[F72]WS; not fully specified; printed as d-I-F72-W-S; reading uncertain)”, the “ITC Kd” value [1] was “bound as good as the 17-mer”.

With `CC(C)[C@H](NC(=O)[C@H](CC(=O)O)NC(=O)[C@@H](CO)NC(=O)[C@@H](CC(=O)O)NC(=O)[C@H](N)CC(=O)O)C(=O)N[C@@H](Cc1c[nH]c2ccccc12)C(=O)N[C@@H](Cc1c[nH]c2ccccc12)C(=O)NCC(=O)NCC(=O)O` [VIB_P07, {D-ASP}{D-ASP}{D-SER}DVWWGG] (H-[dD][dD][dS]DVWWGG-OH; N-terminus and C-terminus assumed) the Kd [1] was 11 µM.

In the case of `CC(C)[C@H](NC(=O)[C@H](CC(=O)O)NC(=O)[C@H](CO)NC(=O)[C@@H](CC(=O)O)NC(=O)[C@@H](N)CC(=O)O)C(=O)N[C@@H](Cc1c[nH]c2ccccc12)C(=O)N[C@@H](Cc1c[nH]c2ccccc12)C(=O)NCC(=O)NCC(=O)O` [VIB_P09, D{D-ASP}SDVWWGG] (H-D[dD]SDVWWGG-OH; N-terminus and C-terminus assumed), the Kd [1] is reported as 11 µM.

For “DDSDVWWGGADTDYADG [Peptide 17-mer, DDSDVWWGGADTDYADG]”, the “Ex vivo assay 1 μM (short-term facilitation)” value ([2]; peptide 1 μM, vs scrambled control peptide, burst of 5 stimuli at 20 Hz, listed as sAPP 17-mer) was “increased the facilitation”, the “Increase in facilitation after preincubation with GABABR antagonist CGP-54626” value ([2]; peptide 1 μM, CGP-54626 10 μM preincubation) was “blocked” and the “Ex vivo assay 10 μM (short-term facilitation)” value ([2]; peptide 10 μM, vs scrambled negative control at 10 μM) was “statistically significant increase in short-term facilitation”.

In the case of `CC[C@H](C)[C@H](NC(=O)[C@H](N)CC(=O)O)C(=O)N[C@@H](Cc1c[nH]c2cc(Cl)ccc12)C(=O)N[C@@H](Cc1c[nH]c2ccccc12)C(=O)N[C@@H](CO)C(=O)O` [VIB-0068894], the inhibition at 50 µM [3] is reported as 96.8%, the “ITC Kd” value [1] is reported as “bound as good as the 17-mer” and the inhibition at 100 µM [4] is reported as 84.2%.

DDSDVWWG [VIB_P20, DDSDVWWG] showed a Kd [1] of 1.95 µM.

`CC[C@H](C)[C@H](NC(=O)[C@H](N)CC(=O)O)C(=O)N[C@@H](Cc1ccc2ccccc2c1)C(=O)N[C@@H](Cc1c[nH]c2ccccc12)C(=O)N[C@@H](CO)C(=O)O` [VIB-0068895] (H-[dD]I[2Nal]WS-OH; N-terminus and C-terminus assumed) gave an inhibition at 50 µM [3] of 96.3% and an inhibition at 100 µM [4] of 77%.

B1: VIB_P05 (peptide)
peptide: ADSAVWWGG
B1: binds [5].

B2: VIB_P16 (peptide)
peptide: DDSDAWWGG
B2: binds [5].

B3: VIB_P17 (peptide)
peptide: DDSDVAWGG
B3: binds [5].

B4: VIB_P18 (peptide)
peptide: DDSDVWAGG
B4: binds [5].

Source: patent US20240376149A1, “Novel Modulators of GABABR1a” (VIB VZW, priority 2021, published 2024)
